{"source": "patent US9556460B2", "about": "“Method for the production of 3-hydroxy-3-methylbutyric acid from acetone and an activated acetyl compound” (Scientist of Fortune, S.A., priority 2009, dated 2017)", "assay_type_in_all_cases": "biochemical", "settings_in_all_cases": "acetyl-CoA constant 10 mM, 40 mM Tris-HCl pH 8, 2 mM MgCl2, 37° C., 40 h", "key": {"[1]": {"molecular_target": "T1, Schizosaccharomyces pombe (Fission yeast) HMG-CoA synthase, cytoplasmic, P54874, SEQ ID NO: 2 (Schizosaccharomyces pombe, UniProt P54874)", "T1 construct": "made in house; host or cells: E. coli BL21", "T1 sequence (P54874 1-447)": "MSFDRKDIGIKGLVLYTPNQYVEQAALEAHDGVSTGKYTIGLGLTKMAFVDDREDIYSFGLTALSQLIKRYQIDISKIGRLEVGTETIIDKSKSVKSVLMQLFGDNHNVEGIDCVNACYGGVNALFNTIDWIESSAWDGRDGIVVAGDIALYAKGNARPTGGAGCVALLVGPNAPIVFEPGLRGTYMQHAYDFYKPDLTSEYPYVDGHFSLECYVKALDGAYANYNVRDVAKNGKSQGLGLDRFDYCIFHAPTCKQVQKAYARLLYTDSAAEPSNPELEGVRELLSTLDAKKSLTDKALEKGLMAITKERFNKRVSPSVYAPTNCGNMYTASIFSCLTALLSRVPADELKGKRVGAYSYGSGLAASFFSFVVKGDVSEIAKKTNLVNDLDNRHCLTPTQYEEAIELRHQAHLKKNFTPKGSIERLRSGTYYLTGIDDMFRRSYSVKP", "experiment": "Kinetic parameters for the enzymatic reaction between acetyl-CoA and acetone, HMG-CoA synthase of Schizosaccharomyces pombe", "description": "(§1) Kinetic Parameters for the Enzymatic Reaction Between Acetyl-CoA and Acetone in the Case of HMG Synthases\n(§2) The kinetic parameters were measured using a variable concentration of acetone and a constant concentration of acetyl-CoA (10 mM) in following conditions:\n(§3) The final pH was adjusted to 8.\n(§4) The reaction was initiated by the addition of 3 mg of purified enzyme to the 1 ml reaction mixture. The mixture was then incubated without shaking at 37° C. for 40 h.\n(§5) Analysis of 3-hydroxy-3-methylbutyrate Production\n(§6) Thermochemical conditions leading to the decomposition of 3-hydroxy-3-methylbutyrate into isobutene were applied (Pressman et al., JACS, 1940, 2069-2080): the pH of the reaction mixtures was first adjusted to pH 4 using 6N HCl and the samples were then transferred into gas chromatography vials (Interchim). The vials were sealed and incubated at 110° C. for 4 hours, thus leading to the decomposition of 3-hydroxy-3-methylbutyrate into isobutene.\n(§7) The calibration curve was prepared in the same conditions using commercial 3-hydroxy-3-methylbutyrate.\n(§8) One milliliter of headspace gas was collected and injected into a HP5890 gas chromatograph (HP) equipped with a FID detector and a CP SilicaPlot® column (chromatography column; Varian). Commercial isobutene was used as reference. From the isobutene signal the amount of 3-hydroxy-3-methylbutyrate initially present in the sample was calculated."}, "[2]": {"molecular_target": "Staphylococcus epidermidis HMG-CoA synthase, Q8CN06, SEQ ID NO: 11 (Staphylococcus epidermidis, UniProt Q9FD76)", "sequence (Q9FD76 entry or part of it, one chain of several)": "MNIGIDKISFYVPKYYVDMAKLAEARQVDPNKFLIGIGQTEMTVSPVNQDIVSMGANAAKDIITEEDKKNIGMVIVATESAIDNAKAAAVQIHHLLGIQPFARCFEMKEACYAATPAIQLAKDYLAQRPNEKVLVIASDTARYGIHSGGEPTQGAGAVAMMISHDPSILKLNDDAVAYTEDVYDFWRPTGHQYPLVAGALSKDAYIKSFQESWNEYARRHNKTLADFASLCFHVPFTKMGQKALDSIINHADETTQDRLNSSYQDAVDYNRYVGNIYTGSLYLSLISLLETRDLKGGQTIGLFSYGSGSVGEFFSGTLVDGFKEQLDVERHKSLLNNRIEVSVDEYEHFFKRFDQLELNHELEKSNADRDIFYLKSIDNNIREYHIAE", "experiment": "Kinetic parameters for the enzymatic reaction between acetyl-CoA and acetone, HMG-CoA synthase of Staphylococcus epidermidis", "description": "as §1, §2, §3, §4, §5, §6, §7, §8"}, "[3]": {"molecular_target": "T2, Gallus gallus (Chicken) HMG-CoA synthase, cytoplasmic, P23228, SEQ ID NO: 7 (Gallus gallus, UniProt P23228)", "T2 construct": "made in house; host or cells: E. coli BL21", "T2 sequence (P23228 1-522)": "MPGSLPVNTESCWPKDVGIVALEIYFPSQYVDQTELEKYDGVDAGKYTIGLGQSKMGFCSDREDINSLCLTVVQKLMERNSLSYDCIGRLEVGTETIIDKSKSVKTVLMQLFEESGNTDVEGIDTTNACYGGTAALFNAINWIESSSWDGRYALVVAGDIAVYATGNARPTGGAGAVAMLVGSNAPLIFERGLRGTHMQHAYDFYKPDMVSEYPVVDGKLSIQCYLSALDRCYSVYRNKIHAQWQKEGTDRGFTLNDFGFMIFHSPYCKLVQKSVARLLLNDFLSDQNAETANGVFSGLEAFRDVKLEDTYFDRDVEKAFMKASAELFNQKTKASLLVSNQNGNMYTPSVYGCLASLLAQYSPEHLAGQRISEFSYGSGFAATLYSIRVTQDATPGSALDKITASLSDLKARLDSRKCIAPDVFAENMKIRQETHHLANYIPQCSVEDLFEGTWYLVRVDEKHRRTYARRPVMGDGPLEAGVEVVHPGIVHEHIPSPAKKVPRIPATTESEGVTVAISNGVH", "experiment": "Kinetic parameters for the enzymatic reaction between acetyl-CoA and acetone, HMG-CoA synthase of Gallus gallus", "description": "as §1, §2, §3, §4, §5, §6, §7, §8"}}, "data": [{"smiles": "CC(C)=O", "note": "[acetone]", "values": [{"measurement": "kcat", "setting": "[1]; 0-1 M acetone", "result": "0.2 × 10^−4, sec^−1"}, {"measurement": "kcat/KM", "setting": "[1]; acetone", "result": "0.1 × 10^−6, mM^−1 × sec−^1"}, {"measurement": "kcat", "setting": "[2]; 0-1 M acetone", "result": "0.6 × 10^−4, sec^−1"}, {"measurement": "kcat/KM", "setting": "[2]; acetone", "result": "0.3 × 10^−6, mM^−1 × sec−^1"}, {"measurement": "kcat", "setting": "[3]; 0-1 M acetone", "result": "5 × 10^−4, sec^−1"}, {"measurement": "kcat/KM", "setting": "[3]; acetone", "result": "2 × 10^−6, mM^−1 × sec−^1"}]}]}
